# Test results: patent publication US20230023092A1, “TREATMENT OF DEPRESSION AND OTHER VARIOUS DISORDERS WITH PSILOCYBIN” (COMPASS […], priority 2019, published 2023)
# Test system: healthy subjects
# Experiment: Phase 1 study: adverse events (TEAEs, MedDRA coded)
# Assay type: in vivo, human
# Procedure: A Phase 1 randomized, double-blind, placebo-controlled study to evaluate the effect of psilocybin on cognitive and emotional processing as compared to placebo in healthy volunteers was conducted. The study investigated the short-term (Day 7) and long-term (Day 28) effects of moderate (10 mg) and high doses (25 mg) of psilocybin on key domains of cognition, such as episodic memory, attention, working and spatial memory, social cognition and elements of executive function, including cognitive flexibility.
# Each subject was assigned 1 treatment bottle containing 5 capsules packaged in a double-blind fashion, depending on the randomized treatment arm, the bottle contained one of the following: • a. Psilocybin 10 mg: 2×5-mg oral psilocybin capsules plus 3×placebo capsules • b. Psilocybin 25 mg: 5×5-mg oral psilocybin capsules • c. Placebo: 5×placebo capsules
# Each 5-mg oral psilocybin capsules comprised 5 mg crystalline psilocybin in the form or Polymorph A, 12.5 mg of SMCC 50, 79.5 mg of SMCC 90, 1 mg sodium starch glycolate, 1 mg colloidal silicon dioxide, and 1 mg sodium stearyl fumarate
# Adverse events: Throughout the course of the study, all AEs were monitored and recorded. Each AE was classified according to the following criteria: • i. […] Moderate: The AE produces some impairment of functioning, but is not hazardous to the subject's health. • iii. Severe: The AE produces significant impairment of functioning or incapacitation and is a definite hazard to the subject's health.
# Visit 3 (V3): Drug Administration (Day 0): The subject was asked to eat a light breakfast at least two hours prior to coming to the clinic for study drug administration. On Day 0 (V3), the subject underwent the SSTS, had vital signs obtained, medications reviewed, AEs recorded and eligibility reviewed prior to being randomized to study drug. The study drug was administered to up to six subjects simultaneously in individual beds separated by a curtain. The subject was invited to put on eyeshades and headphones, lie down and listen to calming music for the rest of the session (six hours). The subject was supported 1:1 with a chaperone and supervised by the study psychiatrist and lead therapist.
# During administration of psilocybin, each subject received one-on-one support from a trained assisting therapist and each dosing session was supervised by a study psychiatrist and a lead therapist. The study drug was administered simultaneously to up to six participants as a single 5-capsule oral dose (10 mg psilocybin: 2×5-mg psilocybin capsules plus 3×placebo capsules; 25 mg psilocybin: 5×5-mg psilocybin capsules; placebo: 5×placebo capsules). Twenty-five dosing sessions were completed, with up to six participants dosed simultaneously per session. Each session lasted approximately 6 to 8 hours with subjects encouraged to relax and engage in introspection for the duration. After the acute effects of the study drug had subsided, subjects were discharged.
compound,measurement,setting,value
"CN(C)CCc1c[nH]c2cccc(OP(=O)(O)O)c12 [Psilocybin, psilocybin]","Psychiatric disorders, Events",10 mg oral,121
same,"Psychiatric disorders, N (%)",10 mg oral,27 (90.0)
same,"Psychiatric disorders, worst severity Mild, Events",10 mg oral,6
same,"Psychiatric disorders, worst severity Mild, N (%)",10 mg oral,4 (13.3)
same,"Psychiatric disorders, worst severity Moderate, Events",10 mg oral,29
same,"Psychiatric disorders, worst severity Moderate, N (%)",10 mg oral,13 (43.3)
same,"Psychiatric disorders, worst severity Severe, Events",10 mg oral,21
same,"Psychiatric disorders, worst severity Severe, N (%)",10 mg oral,10 (33.3)
same,"Psychomotor skills impaired, Events",10 mg oral,1
same,"Psychomotor skills impaired, N (%)",10 mg oral,1 (3.3)
same,"Respiratory, thoracic and mediastinal disorders, Events",10 mg oral,0
same,"Respiratory, thoracic and mediastinal disorders, N (%)",10 mg oral,0
same,"Selected TEAE: Nervous system disorders, Events",10 mg oral,2
same,"Selected TEAE: Nervous system disorders, N (%)",10 mg oral,2 (6.7)
same,"Selected TEAE: Psychiatric disorders, Events",10 mg oral,104
same,"Selected TEAE: Psychiatric disorders, N (%)",10 mg oral,27 (90.0)
same,"Somatic hallucination, Events",10 mg oral,8
same,"Somatic hallucination, N (%)",10 mg oral,8 (26.7)
same,"Somatic hallucination, worst severity Mild, Events",10 mg oral,1
same,"Somatic hallucination, worst severity Mild, N (%)",10 mg oral,1 (3.3)
same,"Somatic hallucination, worst severity Moderate, Events",10 mg oral,7
same,"Somatic hallucination, worst severity Moderate, N (%)",10 mg oral,7 (23.3)
same,"Somatic hallucination, worst severity Severe, Events",10 mg oral,0
same,"Somatic hallucination, worst severity Severe, N (%)",10 mg oral,0
same,"Substance-induced psychotic disorder, Events",10 mg oral,0
same,"Substance-induced psychotic disorder, N (%)",10 mg oral,0
same,"Tension headache, Events",10 mg oral,3
same,"Tension headache, N (%)",10 mg oral,3 (10.0)
same,"Tension headache, worst severity Mild, Events",10 mg oral,1
same,"Tension headache, worst severity Mild, N (%)",10 mg oral,1 (3.3)
same,"Tension headache, worst severity Moderate, Events",10 mg oral,2
same,"Tension headache, worst severity Moderate, N (%)",10 mg oral,2 (6.7)
same,"Tension headache, worst severity Severe, Events",10 mg oral,0
same,"Tension headache, worst severity Severe, N (%)",10 mg oral,0
same,"Time perception altered, Events",10 mg oral,2
same,"Time perception altered, N (%)",10 mg oral,2 (6.7)
same,"Time perception altered, worst severity Mild, Events",10 mg oral,1
same,"Time perception altered, worst severity Mild, N (%)",10 mg oral,1 (3.3)
same,"Time perception altered, worst severity Moderate, Events",10 mg oral,1
same,"Time perception altered, worst severity Moderate, N (%)",10 mg oral,1 (3.3)
same,"Time perception altered, worst severity Severe, Events",10 mg oral,0
same,"Time perception altered, worst severity Severe, N (%)",10 mg oral,0
same,Adverse events reported by % of subjects,"10 mg oral, 12-week study",96.7%
same,Reported 'Mood altered' events: Being less judgmental (number),10 mg psilocybin (n = 30),1
same,Reported 'Mood altered' events: Calm (number),10 mg psilocybin (n = 30),0
same,Reported 'Mood altered' events: Clarity of thought (number),10 mg psilocybin (n = 30),0
same,Reported 'Mood altered' events: Contemplative state (number),10 mg psilocybin (n = 30),1
same,Reported 'Mood altered' events: Feeling more moody/sensitive (number),10 mg psilocybin (n = 30),1
same,Reported 'Mood altered' events: Feeling of adrenaline release (number),10 mg psilocybin (n = 30),0
same,Reported 'Mood altered' events: Feeling rested (number),10 mg psilocybin (n = 30),1
same,Reported 'Mood altered' events: Increased compassion (number),10 mg psilocybin (n = 30),0
same,Reported 'Mood altered' events: Increased creativity (number),10 mg psilocybin (n = 30),0
same,Reported 'Mood altered' events: Increased empathy (number),10 mg psilocybin (n = 30),2
same,Reported 'Mood altered' events: Increased sense of connectedness (number),10 mg psilocybin (n = 30),0
same,Reported 'Mood altered' events: Increased wit (number),10 mg psilocybin (n = 30),1
same,Reported 'Mood altered' events: Introspection (number),10 mg psilocybin (n = 30),5
same,Reported 'Mood altered' events: Laughter (number),10 mg psilocybin (n = 30),1
same,Reported 'Mood altered' events: More socially upbeat (number),10 mg psilocybin (n = 30),0
same,Reported 'Mood altered' events: Negative mood (number),10 mg psilocybin (n = 30),0
same,Reported 'Mood altered' events: Reflections (number),10 mg psilocybin (n = 30),3
same,Reported 'Mood altered' events: Saw themselves from a new perspective (number),10 mg psilocybin (n = 30),0
same,Reported 'Mood altered' events: Sense of oneness (number),10 mg psilocybin (n = 30),4
same,Reported 'Mood altered' events: Sense of openness (number),10 mg psilocybin (n = 30),1
same,Reported 'Mood altered' events: Unusual appreciation of music (number),10 mg psilocybin (n = 30),0
same,"AEs deemed potentially related to study treatment, % of AEs of the arm",25 mg oral,95.9%
same,"Affect lability, Events",25 mg oral,3
